Measurements from patent publication US20230241233A1, “ORAL PHARMACEUTICAL COMPOSITIONS COMPRISING LIPID CONJUGATES” (UNIVERSITAT HEIDELBERG, priority 2020, published 2023).

Columns and labels:
[1] = Bioavailability of octreotide SEDDS formulation in beagle dogs; settings: dog, plasma, oral, 1.5 mg/animal
Protocol: The administration of octreotide in SEDDS formulation was investigated in a study in beagle dogs at Charles River, Evreux, France (Study No 47656 PAC and 48482 PAC). […] Animals were treated with octreotide in SEDDs formulation, or octreotide alone, prepared in citrate buffer (100 mM, pH 5.5), by single oral administration via gavage. For determination of the absolute bioavailability plasma concentrations after intravenous bolus injection (in PBS) were determined. Between the cycles, a wash-out phase of one week was performed.
Plasma concentrations of all investigated peptide therapeutics were determined by quantification using a validated UPLC-MS/MS assay (according to the pertinent recommendations for bioanalytical method development of the US FDA and EMA). All assays were performed on a Waters Xevo TQ-XS triple quadrupole tandem mass spectrometer coupled to a Waters Acquity classic UPLC using C18 columns, heated electrospray ionization (ESI), and selected ion monitoring in the positive ion mode.

[2] = Pharmacokinetic evaluation of octreotide lipid conjugate in beagle dogs (Charles River Study No 47656 PAC); format: in vivo; settings: dog, plasma, conjugate dose 0 mg, oral gavage octreotide 0.12 mg/kg, vs iv bolus 0.01 mg/kg, read-out: abs. bioavailability
Protocol: Between the cycles, a washout phase of one week was performed.
First, animals received an intravenous bolus injection of 0.01 mg/kg octreotide. The consecutive administrations were given orally by gavage. After a wash-out of one week animals #1 and #2 received 0.12 mg/kg free octreotide and animals #3 and #4 received 0.12 mg/kg octreotide with 0.3 mg/kg lipid-conjugate. After a wash-out of one week animals #1 and #2 received 0.12 mg/kg free octreotide with 1 mg/kg lipid-conjugate and animals #3 and #4 received 0.12 mg/kg octreotide with 3 mg/kg lipid-conjugate. After a wash-out of one week animals #1 and #2 received 0.12 mg/kg free octreotide with 10 mg/kg lipid-conjugate and animals #3 and #4 received 0.12 mg/kg octreotide with 30 mg/kg lipid-conjugate. After a wash-out of one week animals #1 and #2 received 0.012 mg/kg free octreotide with 1 mg/kg lipid-conjugate and animals #3 and #4 received 1.2 mg/kg octreotide with 1 mg/kg lipid-conjugate.

Compound C[C@@H](O)[C@@H]1NC(=O)[C@H](CCCCN)NC(=O)[C@@H](Cc2c[nH]c3ccccc23)NC(=O)[C@H](Cc2ccccc2)NC(=O)[C@@H](NC(=O)[C@H](N)Cc2ccccc2)CSSC[C@@H](C(=O)N[C@H](CO)[C@@H](C)O)NC1=O [octreotide] has a bioavailability [1] of 2.1% and a bioavailability [2] of 2.1%.
